Results published in patent publication US20040259835A1, “Stabilized brivudine topical formulations” (priority 2001, published 2004).

Tested on: herpes simplex virus type 1 (HSV-1)
Assay: not given
Conditions: state of the art; cited from earlier work

Row | Molecule | effectiveness against HSV-1 (in words)
1 | O=c1[nH]c(=O)n([C@H]2C[C@H](O)[C@@H](CO)O2)cc1/C=C/Br [brivudine, (E)-5-(2-bromovinyl)-2′-deoxyuridine] | very effective

Tested on: varicella-zoster virus (VZV)
Assay: not given
Conditions: state of the art; cited from earlier work

Row | Molecule | effectiveness against VZV (in words)
2 | O=c1[nH]c(=O)n([C@H]2C[C@H](O)[C@@H](CO)O2)cc1/C=C/Br [brivudine, (E)-5-(2-bromovinyl)-2′-deoxyuridine] | very effective

Tested on: not given
Assay: not given
Conditions: UV light; isomerization to Z-BVDU and other decomposition products; state of the art; cited from earlier work

Row | Molecule | light stability of brivudine (in words)
3 | O=c1[nH]c(=O)n([C@H]2C[C@H](O)[C@@H](CO)O2)cc1/C=C/Br [brivudine, (E)-5-(2-bromovinyl)-2′-deoxyuridine] | light-instability

Tested on: not listed separately
Assay: Photostabilization of brivudine by admixed substances (formulation not specified)
Assay type: physicochemical
Conditions: not given
Text: DE 3136282 proposes to protect light-unstable drugs using substances with a similar absorption profile. The protective effect is supposed to depend on the similarity between the absorption spectra of the stabilizer and of the drug, that is, the larger is the overlapping between the two absorption spectra, the better is the photo-stabilization. According to DE3136282, the ICH (International Conference on Harmonisation) guideline CPMP/ICH/279/95 was followed to determine brivudine degradation. Several substances, including pharmaceutical excipients, colorants or photostable drugs were tested in admixture with brivudine.

Row | photostabilization of brivudine (in words) | Molecule | degradation of brivudine (in words)
4 | effectively stabilize | O=C(c1ccccc1)c1ccc(O)cc1O [2,4-dihydroxy benzophenone] | –
5 | did not show any effect | N[C@@H](CS)C(=O)O [cystein] | –
6 | effectively stabilize | COc1cc(O)c(C(=O)c2ccccc2)cc1S(=O)(=O)O [Sulisobenzone] | –
7 | effectively stabilize | COc1ccc(C(=O)c2ccccc2)c(O)c1 [Oxybenzone] | –
8 | No effects | CCCCC(CC)COC(=O)c1ccc(Nc2nc(Nc3ccc(C(=O)OCC(CC)CCCC)cc3)nc(Nc3ccc(C(=O)OCC(CC)CCCC)cc3)n2)cc1 (centres unmarked) [Uvinul® T150, 2,4,6-trianilino-p-(carbo-2′-ethyl-hexyl-1′-oxi)-1,3,5-triazin] | –
9 | No effects | CCCCC(CC)COC(=O)c1ccc(N(C)C)cc1 (centres unmarked) [Padimate O] | –
10 | No effects | CC1CC(OC(=O)c2ccccc2O)CC(C)(C)C1 (centres unmarked) [homosalate] | –
11 | did not show any effect | O=C(O)CCCCC1CCSS1 (stereo not drawn) [alpha-liponic acid] | –

Second part, the molecule before the results:

Row | Molecule | photostabilization of brivudine (in words) | degradation of brivudine (in words)
12 | COc1ccc(C(=O)CC(=O)c2ccc(C(C)(C)C)cc2)cc1 [avobenzone] | stabilize brivudine, although to a lesser extent | –
13 | O=S(=O)([O-])c1ccc(N=Nc2ccc(O)cc2O)cc1.[Na+] [Tropaeolin 0, 2,4-dihydroxyazobenzol-4′-sulfonic acid sodium salt] | best recovery rates | nearly no degradation of brivudine was detectable
14 | COc1ccc(C(=O)c2ccccc2O)c(O)c1 [Dioxybenzone] | effectively stabilize | –
15 | O=C(c1ccc(O)cc1O)c1ccc(O)cc1O [2,2′,4,4′-tetrahydroxybenzophenon, 2,2′,4,4′-tetrahydroxy-benzophenone] | effectively stabilize | –
16 | CCCCC(CC)COC(=O)C=Cc1ccc(OC)cc1 (centres unmarked) [octyl-methoxy-cinnamate] | stabilize brivudine, although to a lesser extent | –
17 | Cc1ccc(/C=C2/C(=O)C3(C)CCC2C3(C)C)cc1 (centres unmarked) [methyl-benzylidene-camphor] | stabilize brivudine, although to a lesser extent | –
18 | CC1=C(/C=C/C(C)=C/C=C/C(C)=C/C=C/C=C(C)/C=C/C=C(C)/C=C/C2=C(C)CCCC2(C)C)C(C)(C)CCC1 [beta carotene, beta-carotene] | remarkable photostabilization | –
19 | CCCCC(CC)COC(=O)C(C#N)=C(c1ccccc1)c1ccccc1 (centres unmarked) [octocrylene] | stabilize brivudine, although to a lesser extent | –
20 | COc1cc(O)c(C(=O)c2cc(S(=O)(=O)[O-])c(OC)cc2O)cc1S(=O)(=O)[O-].[Na+].[Na+] [2,2′-dihydroxy-4,4′-dimethoxybenzophenone-5,5′-disodium sulfonate] | effectively stabilize | –

Same assay, conditions: substance in admixture with brivudine, UV irradiation

Row | Molecule | photostabilization of brivudine (in words)
21 | Type I: 2-(1,3-Dioxo-2-indanyl)-chinolin-disulfonic acid, Disodium salt Type II: 2-(1,3-Dioxo-2-indanyl)-methylchinolin-disulfonic acid, Disodium salt [Quinoline Yellow] | did not satisfactorily stabilize brivudine
22 | 4-Bis(polyethoxy)paraamino-benzoicacid-polyethoxy-ethylester [Uvinul ® P25] | No effects
23 | COc1cc(C=O)ccc1O [Vanillin] | did not satisfactorily stabilize brivudine

Same assay, conditions: versus controls

Row | protection of brivudine from decomposition over the controls | Molecule
24 | more than 30% | O=S(=O)([O-])c1ccc2c(N=Nc3ccc(S(=O)(=O)[O-])c4ccccc34)c(O)c(S(=O)(=O)[O-])cc2c1.[Na+].[Na+].[Na+] [Food red 9, 3-Hydroxy-4-(4-sulfonato-1-naphtylazo)-naphthalin-2,7-disulfonic acid, Trisodium salt]

Same assay, conditions: with respect to brivudine alone

Row | Molecule | fold increase of brivudine photostabilization / recovery
25 | 7-Hydroxy-8-(4-sulfonato-1-naphthylazo)-naphthalin-1,3-disulfonic acid, trisodium salt [Cochineal Red A] | more then threefold
